Source: PubChem BioAssay (NCI)
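GI50 marks 50% less growth. TGI: concentration producing complete growth inhibition.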

Experiments:
Test in all cases: growth of human tumour cells (NCI), 384-well format
NCI-H226 lung = system: NCI-H226 lung
EKVX NSCLC = system: EKVX NSCLC
MDA-MB-468 breast = system: MDA-MB-468 breast
COLO 205 colon = system: COLO 205 colon
SF-268 CNS = system: SF-268 CNS
MALME-3M melanoma = system: MALME-3M melanoma
SNB-19 CNS = system: SNB-19 CNS
SK-OV-3 ovarian = system: SK-OV-3 ovarian
A498 renal = system: A498 renal
A549 NSCLC = system: A549 NSCLC
HCT-15 colon = system: HCT-15 colon
HT29 colon = system: HT29 colon
NCI-H322M lung = system: NCI-H322M lung
SR leukemia = system: SR leukemia
U251 glioblastoma = system: U251 glioblastoma
SK-MEL-28 melanoma = system: SK-MEL-28 melanoma
SF-539 CNS = system: SF-539 CNS
UACC-257 melanoma = system: UACC-257 melanoma
CCRF-CEM leukemia = system: CCRF-CEM leukemia
RXF 393 renal = system: RXF 393 renal
MDA-MB-435 melanoma = system: MDA-MB-435 melanoma
MOLT-4 leukemia = system: MOLT-4 leukemia
SNB-75 CNS = system: SNB-75 CNS
NCI-H522 lung = system: NCI-H522 lung
SW-620 colon = system: SW-620 colon
M14 melanoma = system: M14 melanoma
HOP-62 NSCLC = system: HOP-62 NSCLC
OVCAR-5 ovarian = system: OVCAR-5 ovarian
RPMI-8226 leukemia = system: RPMI-8226 leukemia
UO-31 renal = system: UO-31 renal
SN12C renal = system: SN12C renal
NCI/ADR-RES ovarian = system: NCI/ADR-RES ovarian
OVCAR-8 ovarian = system: OVCAR-8 ovarian
OVCAR-4 ovarian = system: OVCAR-4 ovarian
NCI-H460 NSCLC = system: NCI-H460 NSCLC
HOP-92 NSCLC = system: HOP-92 NSCLC
HCC-2998 colon = system: HCC-2998 colon
ACHN renal = system: ACHN renal
MDA-MB-231 breast = system: MDA-MB-231 breast
HS 578T breast = system: HS 578T breast
T-47D breast = system: T-47D breast
LOX IMVI melanoma = system: LOX IMVI melanoma
K-562 leukemia = system: K-562 leukemia
HL-60(TB) leukemia = system: HL-60(TB) leukemia
OVCAR-3 ovarian = system: OVCAR-3 ovarian
PC-3 prostate = system: PC-3 prostate
SF-295 CNS = system: SF-295 CNS
DU-145 prostate = system: DU-145 prostate
SK-MEL-5 melanoma = system: SK-MEL-5 melanoma
BT-549 breast = system: BT-549 breast
786-0 renal = system: 786-0 renal
NCI-H23 lung = system: NCI-H23 lung

SMILES: CC(C)[C@]12O[C@H]1[C@@H]1O[C@]13[C@]1(O[C@H]1C[C@H]1C4=C(CC[C@@]13C)C(=O)OC4)[C@@H]2O
- GI50 (NCI-H226 lung): < 10 nM
- TGI (NCI-H226 lung): 12.3 nM
- GI50 (EKVX NSCLC): 10 nM
- TGI (EKVX NSCLC): 30.2 nM
- GI50 (MDA-MB-468 breast): < 10 nM
- TGI (MDA-MB-468 breast): 20.8 nM
- GI50 (COLO 205 colon): < 10 nM
- TGI (COLO 205 colon): 23.3 nM
- GI50 (SF-268 CNS): 10.2 nM
- TGI (SF-268 CNS): 27.7 nM
- GI50 (MALME-3M melanoma): < 10 nM
- TGI (MALME-3M melanoma): 21 nM
- GI50 (SNB-19 CNS): 21.1 nM
- TGI (SNB-19 CNS): > 100000 nM
- GI50 (SK-OV-3 ovarian): < 10 nM
- TGI (SK-OV-3 ovarian): 36.5 nM
- GI50 (A498 renal): < 10 nM
- TGI (A498 renal): 27.5 nM
- GI50 (A549 NSCLC): 15 nM
- TGI (A549 NSCLC): > 100000 nM
- GI50 (HCT-15 colon): < 10 nM
- TGI (HCT-15 colon): 31.6 nM
- GI50 (HT29 colon): 11.1 nM
- TGI (HT29 colon): > 100000 nM
- GI50 (NCI-H322M lung): 10.8 nM
- TGI (NCI-H322M lung): 31.8 nM
- GI50 (SR leukemia): < 10 nM
- TGI (SR leukemia): < 10 nM
- GI50 (U251 glioblastoma): 11.3 nM
- TGI (U251 glioblastoma): 66 nM
- GI50 (SK-MEL-28 melanoma): < 10 nM
- TGI (SK-MEL-28 melanoma): < 10 nM
- GI50 (SF-539 CNS): < 10 nM
- TGI (SF-539 CNS): 15.4 nM
- GI50 (UACC-257 melanoma): < 10 nM
- TGI (UACC-257 melanoma): 21.2 nM
- GI50 (CCRF-CEM leukemia): < 10 nM
- TGI (CCRF-CEM leukemia): 15.7 nM
- GI50 (RXF 393 renal): < 10 nM
- TGI (RXF 393 renal): < 10 nM
- GI50 (MDA-MB-435 melanoma): < 10 nM
- TGI (MDA-MB-435 melanoma): 18.1 nM
- GI50 (MOLT-4 leukemia): < 10 nM
- TGI (MOLT-4 leukemia): < 10 nM
- GI50 (SNB-75 CNS): < 10 nM
- TGI (SNB-75 CNS): 21.9 nM
- GI50 (NCI-H522 lung): < 10 nM
- TGI (NCI-H522 lung): < 10 nM
- GI50 (SW-620 colon): < 10 nM
- TGI (SW-620 colon): 33.3 nM
- GI50 (M14 melanoma): 11.7 nM
- TGI (M14 melanoma): 24.1 nM
- GI50 (HOP-62 NSCLC): < 10 nM
- TGI (HOP-62 NSCLC): < 10 nM
- GI50 (OVCAR-5 ovarian): < 10 nM
- TGI (OVCAR-5 ovarian): > 100000 nM
- GI50 (RPMI-8226 leukemia): < 10 nM
- TGI (RPMI-8226 leukemia): < 10 nM
- GI50 (UO-31 renal): 11.4 nM
- TGI (UO-31 renal): 51.3 nM
- GI50 (SN12C renal): < 10 nM
- TGI (SN12C renal): 12.4 nM
- GI50 (NCI/ADR-RES ovarian): < 10 nM
- TGI (NCI/ADR-RES ovarian): 26.1 nM
- GI50 (OVCAR-8 ovarian): 10.6 nM
- TGI (OVCAR-8 ovarian): 36.6 nM
- GI50 (OVCAR-4 ovarian): < 10 nM
- TGI (OVCAR-4 ovarian): < 10 nM
- GI50 (NCI-H460 NSCLC): < 10 nM
- TGI (NCI-H460 NSCLC): < 10 nM
- GI50 (HOP-92 NSCLC): 12.3 nM
- TGI (HOP-92 NSCLC): 47.7 nM
- GI50 (HCC-2998 colon): 13.7 nM
- TGI (HCC-2998 colon): 31.3 nM
- GI50 (ACHN renal): < 10 nM
- TGI (ACHN renal): 32.4 nM
- GI50 (MDA-MB-231 breast): < 10 nM
- TGI (MDA-MB-231 breast): 21.7 nM
- GI50 (HS 578T breast): < 10 nM
- TGI (HS 578T breast): 18.4 nM
- GI50 (T-47D breast): < 10 nM
- TGI (T-47D breast): 37 nM
- GI50 (LOX IMVI melanoma): < 10 nM
- TGI (LOX IMVI melanoma): < 10 nM
- GI50 (K-562 leukemia): < 10 nM
- TGI (K-562 leukemia): 18.8 nM
- GI50 (HL-60(TB) leukemia): < 10 nM
- TGI (HL-60(TB) leukemia): < 10 nM
- GI50 (OVCAR-3 ovarian): < 10 nM
- TGI (OVCAR-3 ovarian): 12.4 nM
- GI50 (PC-3 prostate): 12.3 nM
- TGI (PC-3 prostate): 52 nM
- GI50 (SF-295 CNS): < 10 nM
- TGI (SF-295 CNS): 21.3 nM
- GI50 (DU-145 prostate): < 10 nM
- TGI (DU-145 prostate): < 10 nM
- GI50 (SK-MEL-5 melanoma): < 10 nM
- TGI (SK-MEL-5 melanoma): 12.2 nM
- GI50 (BT-549 breast): < 10 nM
- TGI (BT-549 breast): < 10 nM
- GI50 ([…]-0 renal): < 10 nM
- TGI (786-0 renal): 17.7 nM
- GI50 (NCI-H23 lung): < 10 nM
- TGI (NCI-H23 lung): < 10 nM
